Source: patent publication US20080138837A1, “Methods and kits for detecting and measuring ADAMTS13/FXI complexes” (priority 2004, published 2008)
Ends that are not written are not given here. * marks the point of attachment. DABCYL = CN(C)c1ccc(/N=N/c2ccc(C(=O)*)cc2)cc1; EDANS = O=S(=O)(O)c1cccc2c(NCCN*)cccc12; AMC = Cc1cc(=O)oc2cc(N*)ccc12

Key:
platelet ADAMTS13 [1] = assay: Enhancement of platelet ADAMTS13 activity by treatment with FXIa; format: biochemical, human; conditions: 0.3 ng/ml FXIa, FIG. 11
Protocol: Washed normal platelets from 200 μL of PRP were resuspended in 1 ml of assay buffer. Washed platelets from 1 ml of PRP from a subject with acquired TTP were resuspended in 50 μL of assay buffer. Normal or TTP platelets (10 μl) were added to 10 mM Tris-HCl pH 8.0 assay buffer (80 μl) or assay buffer containing 0.3 ng/ml of FXIa (80 μl). LVY-AMC substrate (10 μl of 2 mM) was added and the fluorescence was monitored (Ex 360 nm/Em 440 nm) for 1500 seconds. FXIa at 0.3 ng/ml was used as a control.

ADAMTS13 = ADAMTS13 activity in PRP using peptidyl substrates; format: biochemical, human; conditions: normal PRP 20 μl, 0.8 mM substrate, 37° C., 10 mM Tris-HCl pH 8.0, Ex 360 nm/Em 460 nm, FIG. 3
Protocol: (§1) Blood was collected by venopuncture into collection tubes containing 0.12 M sodium citrate, an anti-coagulant. The citrated blood was centrifuged at 700 rpm for 10 minutes. The supernatant was removed and saved as the platelet rich plasma (PRP) fraction. The PRP was centrifuged at 10,000 rpm for 20 minutes. The supernatant was removed and saved as the platelet poor plasma (PPP) fraction. The pellet contained the platelets, which were washed by resuspending in 10 mM Tris-HCl pH 8.0 buffer and centrifuging at 10,000 rpm for 10 minutes. The isolated platelets were resuspended in buffer and used in experiments.
As discussed above, Furlan et al. reported that some peptidyl-pNA moieties, such as XLY-pNA and XVY-pNA, were not substrates for ADAMTS13. We prepared LVY-pNA and tested it for its ability to be cleaved by ADAMTS13. The results shown in FIG. 2 confirm the findings of Furlan et al., i.e., LVY-pNA was not cleaved by ADAMTS13.
In order to determine the effect of modifying the length of the peptide sequence conjugated to the AMC fluorochrome, normal PRP (20 μl) was incubated at 37° C. with a final concentration of 0.8 mM Suc-LLVY-AMC or LVY-AMC in 10 mM Tris-HCl pH 8.0 buffer in total volume of 200 μl. Fluorescence was measured using a microtiter fluorophotometric plate reader (Ex 360 nm/Em 460 nm).

[2] = test system: form of ADAMTS13 found on platelets; assay: ADAMTS13 activity on isolated platelets using a FRET substrate; format: biochemical, human; conditions: 8 μg/ml substrate, 37° C., Ex 360 nm/Em 440 nm, FIG. 4
Protocol: as §1
ADAMTS13 activity was measured using a fluorescent substrate attached to a donor moiety and an acceptor moiety that functions by fluorescence resonance energy transfer (FRET). The ADAMTS13 selective substrate, NH2-Arg-Lys(DABCYL)-NLVYMVTGD(EDANS)-Arg-COOH, was used in this example. […] The intact peptidyl substrate has low fluorescence, due to quenching of the […]. Cleavage of the substrate between the tyrosine and methionine of the peptide sequence results in an increase in fluorescence.
Isolated platelets in 10 mM Tris-HCl pH 8.0 assay buffer were incubated with a final concentration of 8 μg/ml of the FRET substrate at 37° C. The fluorescence was measured in a spectrofluorometric plate reader (Ex 360 nm/Em 440 nm). […]

platelet ADAMTS13 [3] = test system: T1, platelet ADAMTS13
T1 sequence: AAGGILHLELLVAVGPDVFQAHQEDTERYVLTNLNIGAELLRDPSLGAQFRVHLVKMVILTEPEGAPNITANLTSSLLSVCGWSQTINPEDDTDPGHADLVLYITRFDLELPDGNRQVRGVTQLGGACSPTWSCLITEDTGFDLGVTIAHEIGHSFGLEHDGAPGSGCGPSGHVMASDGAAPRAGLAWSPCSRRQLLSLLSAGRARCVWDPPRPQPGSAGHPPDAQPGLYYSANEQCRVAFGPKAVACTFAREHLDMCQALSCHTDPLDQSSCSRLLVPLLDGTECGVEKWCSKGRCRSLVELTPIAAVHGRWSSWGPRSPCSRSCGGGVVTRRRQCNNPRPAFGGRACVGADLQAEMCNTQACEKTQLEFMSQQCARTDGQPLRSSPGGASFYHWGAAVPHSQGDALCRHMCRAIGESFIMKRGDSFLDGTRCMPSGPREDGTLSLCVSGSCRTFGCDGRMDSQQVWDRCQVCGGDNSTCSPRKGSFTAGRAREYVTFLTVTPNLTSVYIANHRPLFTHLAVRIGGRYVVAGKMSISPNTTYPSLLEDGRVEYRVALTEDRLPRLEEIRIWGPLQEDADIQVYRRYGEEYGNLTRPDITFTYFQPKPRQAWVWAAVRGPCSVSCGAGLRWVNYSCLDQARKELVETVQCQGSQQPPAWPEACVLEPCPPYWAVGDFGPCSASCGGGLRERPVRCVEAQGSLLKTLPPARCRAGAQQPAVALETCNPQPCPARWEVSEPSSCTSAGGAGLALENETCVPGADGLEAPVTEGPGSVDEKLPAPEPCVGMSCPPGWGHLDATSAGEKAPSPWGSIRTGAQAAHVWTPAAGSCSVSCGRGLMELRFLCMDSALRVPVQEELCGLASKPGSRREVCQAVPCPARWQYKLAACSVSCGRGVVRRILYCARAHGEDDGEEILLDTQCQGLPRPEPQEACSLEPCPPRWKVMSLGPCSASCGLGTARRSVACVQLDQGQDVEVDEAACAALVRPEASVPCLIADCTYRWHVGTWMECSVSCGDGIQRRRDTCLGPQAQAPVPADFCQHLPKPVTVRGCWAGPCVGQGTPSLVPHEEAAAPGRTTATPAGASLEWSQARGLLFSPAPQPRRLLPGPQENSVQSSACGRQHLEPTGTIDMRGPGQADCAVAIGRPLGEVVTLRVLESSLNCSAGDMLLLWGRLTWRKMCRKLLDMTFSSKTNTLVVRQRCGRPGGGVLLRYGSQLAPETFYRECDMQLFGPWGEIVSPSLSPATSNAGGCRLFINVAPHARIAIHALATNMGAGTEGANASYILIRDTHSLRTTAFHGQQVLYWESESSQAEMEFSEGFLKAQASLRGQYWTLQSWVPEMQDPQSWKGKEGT

Leu-Val-Tyr-AMC = biological target: T2, Leu-Val-Tyr-AMC
T2 chain: LVY

[4] = biological target: T3, NH2-Arg-Lys(DABCYL)-NLVYMVTGD(EDANS)-Arg-COOH
T3 chain: RKNLVYMVTGDR

Suc-Leu-Leu-Val-Tyr-AMC = biological target: T4, Suc-Leu-Leu-Val-Tyr-AMC
T4 chain: LLVY

Molecule: FXIa: activated Factor XI, plasma serine protease
- increase of ADAMTS13 activity towards LVY-AMC substrate upon treatment of platelets with FXIa (platelet ADAMTS13 [1]; normal platelets, 1500 seconds): approximately 8 fold
- enhancement of activity of platelets by treatment with FXIa (platelet ADAMTS13 [1]; platelets from PRP of an acquired TTP patient, compared with normal individual): much lesser extent

Molecule: Leu-Val-Tyr-AMC (Leu-Val-Tyr-{AMC}) [LVY-AMC, fluorogenic peptidyl substrate from Bachem Bioscience Inc; also made by QPR]
- cleavage of peptidyl-AMC substrate by ADAMTS13 in PRP (ADAMTS13): cleaved

Molecule: NH2-Arg-Lys-(DABCYL)-Asn-Leu-Val-Tyr-Met-Val-Thr-Gly-Asp-(EDANS)-Arg-COOH (H-RK(DABCYL)NLVYMVTGD(EDANS)R-OH; SMILES CSCC[C@H](NC(=O)[C@H](Cc1ccc(O)cc1)NC(=O)[C@@H](NC(=O)[C@H](CC(C)C)NC(=O)[C@H](CC(N)=O)NC(=O)[C@H](CCCCNC(=O)c1ccc(/N=N/c2ccc(N(C)C)cc2)cc1)NC(=O)[C@@H](N)CCCNC(=N)N)C(C)C)C(=O)N[C@H](C(=O)N[C@H](C(=O)NCC(=O)N[C@@H](CC(=O)NCCNc1cccc2c(S(=O)(=O)O)cccc12)C(=O)N[C@@H](CCCNC(=N)N)C(=O)O)[C@@H](C)O)C(C)C) [FRET substrate made for American Diagnostica Inc]
- fluorescence on incubation of platelets with FRET substrate (cleavage by platelet ADAMTS13) [2]: increased fluorescence over time

Molecule: activated Factor XI
- ADAMTS13 activity towards LVY-AMC substrate (platelet ADAMTS13 [3]): ADAMTS13 activity was significantly increased (by approximately 8-fold) towards LVY-AMC substrate upon treatment of platelets with FXIa

B1: platelet ADAMTS13 (protein)
chain: T1 sequence
- fluorescence over time (LVY-AMC cleavage) (Leu-Val-Tyr-AMC): the activity in platelets was due to ADAMTS13 cleaving the LVY-AMC substrate
- fluorescence over time (FRET substrate cleavage) [4]: incubation of platelets with NH2-Arg-Lys(DABCYL)-NLVYMVTGD(EDANS)-Arg-COOH results in increased fluorescence over time

B2: recombinant ADAMTS13 (protein)
chain: T1 sequence
- fluorescence signal (Suc-LLVY-AMC cleavage) (Suc-Leu-Leu-Val-Tyr-AMC): a greater fluorescence signal was produced by the supernatant from transfected cells verses supernatant from mock transfected cells
